# US10597388B2, “Pyridazinone herbicides” (FMC CORPORATION, priority 2014, dated 2020)
# How the values were obtained:
# Assay in all cases: Test D controlled growth environment herbicide test, pre- and postemergence
# Format in all cases: in vivo
# [1] = system: windgrass (Apera spica-venti)
# How it was run: (§1)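 Pre-emergence: seeds sown in silt loam soil were sprayed with compound in a non-phytotoxic solvent mix containing surfactant. Post-emergence: plants at 2 to 18 cm (1- to 4-leaf stage) in peat moss/vermiculite medium got the same formulation. Visual 0–100 rating versus controls after 14 to 21 d.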
# kochia (Kochia scoparia) = system: kochia (Kochia scoparia)
# How it was run: as §1
# [2] = system: mustard, wild (wild mustard, Sinapis arvensis)
# How it was run: as §1
# [3] = system: bluegrass (annual bluegrass, Poa annua)
# How it was run: as §1
# [4] = system: speedwell (bird's-eye speedwell, Veronica persica)
# How it was run: as §1
# [5] = system: radish, wild (wild radish, Raphanus raphanistrum)
# How it was run: as §1
# [6] = system: buckwheat, wild (wild buckwheat, Polygonum convolvulus)
# How it was run: as §1
# [7] = system: pigweed (Amaranthus retroflexus)
# How it was run: as §1
# [8] = system: galium (catchweed bedstraw, Galium aparine)
# How it was run: as §1
# [9] = system: canarygrass (Phalaris minor)
# How it was run: as §1
# [10] = system: Russian thistle (Salsola kali)
# How it was run: as §1
# [11] = system: oilseed rape (Brassica napus)
# How it was run: as §1
# [12] = system: field violet (Viola arvensis)
# How it was run: as §1
# [13] = Postemergence, 31 g ai/ha, scale 0 to 100 (0 no effect, 100 complete control)
# [14] = Postemergence, 125 g ai/ha, visual rating on scale 0 (no effect) to 100 (complete control), 14 to 21 d
# [15] = Postemergence, 250 g ai/ha, scale 0 to 100 (0 no effect, 100 complete control)
# [16] = Preemergence, 125 g ai/ha, scale 0 to 100 (0 no effect, 100 complete control)
# [17] = Preemergence, 250 g ai/ha, scale 0 to 100 (0 no effect, 100 complete control)
# [18] = postemergence, 62 g ai/ha, scale 0 to 100, 0 no effect, 100 complete control
# [19] = Preemergence, 62 g ai/ha, scale 0 to 100 (0 no effect, 100 complete control)
smiles,measurement,setting,value
Cc1cc(C)c2sc(C)c(-c3c(OC(=O)OCCCl)c(C)nn(C)c3=O)c2c1 [Compound 85],Windgrass plant response rating,[1]; [13],60
same,"Plant response rating, Windgrass",[1]; [14],80
same,"Plant response rating, Windgrass",[1]; [15],85
same,"Plant response rating (scale of 0 to 100), Windgrass","[1]; Preemergence, 31 g ai/ha",55
same,"Plant response rating (scale of 0 to 100), Windgrass","[1]; Preemergence, 62 g ai/ha",70
same,"Plant response rating, Windgrass",[1]; [16],95
same,"Plant response rating, Windgrass",[1]; [17],100
same,"Plant response rating, Windgrass",[1]; [18],70
same,Kochia plant response rating,kochia (Kochia scoparia); [13],40
same,"Plant response rating, Kochia",kochia (Kochia scoparia); [14],70
same,"Plant response rating, Kochia",kochia (Kochia scoparia); [15],75
same,"Plant response rating (scale of 0 to 100), Kochia","kochia (Kochia scoparia); Preemergence, 31 g ai/ha",5
same,"Plant response rating (scale of 0 to 100), Kochia","kochia (Kochia scoparia); Preemergence, 62 g ai/ha",10
same,"Plant response rating, Kochia",kochia (Kochia scoparia); [16],10
same,"Plant response rating, Kochia",kochia (Kochia scoparia); [17],45
same,"Plant response rating, Kochia",kochia (Kochia scoparia); [18],65
same,"Mustard, Wild plant response rating",[2]; [13],10
same,"Plant response rating, Mustard, Wild",[2]; [14],30
same,"Plant response rating, Mustard, Wild",[2]; [15],80
same,"Plant response rating (scale of 0 to 100), Mustard, Wild","[2]; Preemergence, 31 g ai/ha",25
same,"Plant response rating (scale of 0 to 100), Mustard, Wild","[2]; Preemergence, 62 g ai/ha",25
same,"Plant response rating, Mustard, Wild",[2]; [16],35
same,"Plant response rating, Mustard, Wild",[2]; [17],40
same,"Plant response rating, Mustard, Wild",[2]; [18],25
same,Bluegrass plant response rating,[3]; [13],10
same,"Plant response rating, Bluegrass",[3]; [14],25
same,"Plant response rating, Bluegrass",[3]; [15],40
same,"Plant response rating (scale of 0 to 100), Bluegrass","[3]; Preemergence, 31 g ai/ha",40
same,"Plant response rating, Bluegrass",[3]; [19],60
same,"Plant response rating, Bluegrass",[3]; [16],65
same,"Plant response rating, Bluegrass",[3]; [17],75
same,"Plant response rating, Bluegrass",[3]; [18],20
same,Speedwell plant response rating,[4]; [13],35
same,"Plant response rating, Speedwell",[4]; [14],80
same,"Plant response rating, Speedwell",[4]; [15],100
same,"Plant response rating (scale of 0 to 100), Speedwell","[4]; Preemergence, 31 g ai/ha",50
same,"Plant response rating (scale of 0 to 100), Speedwell","[4]; Preemergence, 62 g ai/ha",90
same,"Plant response rating, Speedwell",[4]; [16],100
same,"Plant response rating, Speedwell",[4]; [17],100
same,"Plant response rating, Speedwell",[4]; [18],70
same,"Radish, Wild plant response rating",[5]; [13],60
same,"Plant response rating, Radish, Wild",[5]; [14],75
same,"Plant response rating, Radish, Wild",[5]; [15],80
same,"Plant response rating (scale of 0 to 100), Radish, Wild","[5]; Preemergence, 31 g ai/ha",0
same,"Plant response rating (scale of 0 to 100), Radish, Wild","[5]; Preemergence, 62 g ai/ha",25
same,"Plant response rating, Radish, Wild",[5]; [16],100
same,"Plant response rating, Radish, Wild",[5]; [17],100
same,"Plant response rating, Radish, Wild",[5]; [18],65
same,"Buckwheat, Wild plant response rating",[6]; [13],95
same,"Plant response rating, Buckwheat, Wild",[6]; [14],100
same,"Plant response rating, Buckwheat, Wild",[6]; [15],100
same,"Plant response rating (scale of 0 to 100), Buckwheat, Wild","[6]; Preemergence, 31 g ai/ha",20
same,"Plant response rating, Buckwheat, Wild",[6]; [19],65
same,"Plant response rating, Buckwheat, Wild",[6]; [16],80
same,"Plant response rating, Buckwheat, Wild",[6]; [17],100
same,"Plant response rating, Buckwheat, Wild",[6]; [18],100
same,Pigweed plant response rating,[7]; [13],75
same,"Plant response rating, Pigweed",[7]; [14],85
same,"Plant response rating, Pigweed",[7]; [15],85
same,"Plant response rating (scale of 0 to 100), Pigweed","[7]; Preemergence, 31 g ai/ha",95
same,"Plant response rating (scale of 0 to 100), Pigweed","[7]; Preemergence, 62 g ai/ha",100
same,"Plant response rating, Pigweed",[7]; [16],100
same,"Plant response rating, Pigweed",[7]; [17],100
same,"Plant response rating, Pigweed",[7]; [18],80
same,Galium plant response rating,[8]; [13],85
same,"Plant response rating, Galium",[8]; [14],100
same,"Plant response rating, Galium",[8]; [15],100
same,"Plant response rating (scale of 0 to 100), Galium","[8]; Preemergence, 31 g ai/ha",30
same,"Plant response rating (scale of 0 to 100), Galium","[8]; Preemergence, 62 g ai/ha",70
same,"Plant response rating, Galium",[8]; [16],75
same,"Plant response rating, Galium",[8]; [17],100
same,"Plant response rating, Galium",[8]; [18],95
same,Canarygrass plant response rating,[9]; [13],75
same,"Plant response rating, Canarygrass",[9]; [14],85
same,"Plant response rating, Canarygrass",[9]; [15],90
same,"Plant response rating (scale of 0 to 100), Canarygrass","[9]; Preemergence, 31 g ai/ha",80
same,"Plant response rating (scale of 0 to 100), Canarygrass","[9]; Preemergence, 62 g ai/ha",90
same,"Plant response rating, Canarygrass",[9]; [16],90
same,"Plant response rating, Canarygrass",[9]; [17],95
same,"Plant response rating, Canarygrass",[9]; [18],85
same,Russian Thistle plant response rating,[10]; [13],65
same,"Plant response rating, Russian Thistle",[10]; [14],80
same,"Plant response rating, Russian Thistle",[10]; [15],90
same,"Plant response rating (scale of 0 to 100), Russian Thistle","[10]; Preemergence, 31 g ai/ha",5
same,"Plant response rating (scale of 0 to 100), Russian Thistle","[10]; Preemergence, 62 g ai/ha",10
same,"Plant response rating, Russian Thistle",[10]; [16],25
same,"Plant response rating, Russian Thistle",[10]; [17],75
same,"Plant response rating, Russian Thistle",[10]; [18],75
same,Oilseed Rape plant response rating,[11]; [13],65
same,"Plant response rating, Oilseed Rape",[11]; [14],70
same,"Plant response rating, Oilseed Rape",[11]; [15],80
same,"Plant response rating (scale of 0 to 100), Oilseed Rape","[11]; Preemergence, 31 g ai/ha",0
same,"Plant response rating (scale of 0 to 100), Oilseed Rape","[11]; Preemergence, 62 g ai/ha",0
same,"Plant response rating, Oilseed Rape",[11]; [16],20
same,"Plant response rating, Oilseed Rape",[11]; [17],30
same,"Plant response rating, Oilseed Rape",[11]; [18],70
same,Field Violet plant response rating,[12]; [13],65
same,"Plant response rating, Field Violet",[12]; [14],75
same,"Plant response rating, Field Violet",[12]; [15],90
same,"Plant response rating (scale of 0 to 100), Field Violet","[12]; Preemergence, 31 g ai/ha",65
same,"Plant response rating (scale of 0 to 100), Field Violet","[12]; Preemergence, 62 g ai/ha",70
same,"Plant response rating, Field Violet",[12]; [16],95
same,"Plant response rating, Field Violet",[12]; [17],100
same,"Plant response rating, Field Violet",[12]; [18],65
